The results in this text go back to paper PMC5711939, “The rumen microbiome: an underexplored resource for novel antimicrobial discovery” (NPJ Biofilms and Microbiomes, 2017).

In brackets after ≈: the same amount, converted by molar mass. Bounds are passed on as bounds.

The subject of assay [1] is E. coli K12. The assay can be described thus: SPOT peptide library screen (resazurin fluorescence). In kind it is cell-based, Escherichia coli. As to conditions: 75% reduction of fluorescence vs untreated controls; active IC75≤0.25, semi-active 0.25<IC75≤0.50, inactive IC75>0.5. The arrangement: unit not given here. From the text: (§1) The peptides in the created peptide library were synthesized based on the SPOT technique and pure peptides (≥95% purity) were synthesized on resin using solid phase Fmoc peptide chemistry.[16] The 135 peptides in the peptide library were screened for antimicrobial activity using both luminescent (Pseudomonas aeruginosa strain H1001)[34] and non-luminescent (epidemic methicillin resistant S. aureus EMRSA-15, Sal. typhimurium and E. coli K12) bacterial strains. Activity against non-luminescent bacteria strains was assessed by fluorescence readings (excitation/emission spectra of 560/590 nm) after the addition of resazurin dye (100 µm final concentration). The results from the screen were analysed using the MATLAB extension Gait-CAD as previously described.[35] Concentration values with a 75% reduction of luminescence or fluorescence (IC75) in relation to untreated controls were computed.
(In general: Resazurin is reduced to fluorescent resorufin, in cell work by metabolically active cells.)

The subject of a further assay is EMRSA-15. The description is as above. As to conditions: 75% reduction of fluorescence vs untreated controls; active IC75≤0.25, semi-active 0.25<IC75≤0.50, inactive IC75>0.5. In kind it is cell-based, Staphylococcus aureus. On the set-up: unit not given here.
From the text: as §1

For a further assay, the system named is Sal. typhimurium. The assay is described as above. In kind it is cell-based, Salmonella enterica serovar Typhimurium. On the set-up: unit not given here. The settings on record: 75% reduction of fluorescence vs untreated controls; active IC75≤0.25, semi-active 0.25<IC75≤0.50, inactive IC75>0.5.
From the text: as §1

A further assay has as its system P. aeruginosa H1001. Kind of assay: SPOT peptide library screen (luminescence). Type of assay: cell-based, Pseudomonas aeruginosa. The arrangement: unit not given here. As to conditions: 75% reduction of luminescence vs untreated controls; active IC75≤0.25, semi-active 0.25<IC75≤0.50, inactive IC75>0.5.
From the text: as §1

The next assay concerns A. baumanii. Kind of assay: microbe, parasite or virus in culture. The settings on record: Acinetobacter baumannii, strain Q12-0867; Sensitive; cation adjusted MHB, 18–24 h. Here is the method:
(§2) Peptides dissolved in sterile distilled water and comparator antibiotics dissolved in the appropriate solvents[38] were added to sterile U-bottom polypropylene 96-well microplates at desired concentrations.

In a further assay the test system is C. jejuni. The assay can be described thus: microbe, parasite or virus in culture. The settings on record: Campylobacter jejuni. How it is done:
as §2

For a further assay, the system named is Ent. faecalis JH2-2. The assay can be described thus: microbe, parasite or virus in culture. As to conditions: Enterococcus faecalis, JH22. Here is the method:
as §2

The test system of another assay is K. pneumoniae. The assay can be described thus: microbe, parasite or virus in culture. The settings on record: Klebsiella pneumoniae, cation adjusted MHB, 18–24 h. How it is done: as §2
The subject of assay [2] is List. monocytogenes NCTC 11994. The assay can be described thus: microbe, parasite or virus in culture. As to conditions: Listeria monocytogenes, NCTC11994. How it is done:
as §2

The test system of a further assay is P. aeruginosa (CF). Kind of assay: microbe, parasite or virus in culture. As to conditions: Pseudomonas aeruginosa, cation adjusted MHB, 18–24 h. Here is the method: as §2
Another assay relates to S. aureus. Kind of assay: microbe, parasite or virus in culture. The settings on record: Staphylococcus aureus. How it is done:
as §2

For the next assay, the system named is Sal. typhimurium SL1344. The assay can be described thus: microbe, parasite or virus in culture. The settings on record: Salmonella enterica, TYPHIMURIUM
How it is done:
as §2

The test system of assay [3] is E. coli K12. Kind of assay: MIC, broth microdilution. Type of assay: cell-based, Escherichia coli. As to conditions: Escherichia coli; strain K12; cation adjusted MHB, 18–24 h; read-out: MIC. How it is done:
as §2
For orientation: Broth dilution looks for growth in wells or tubes with falling amounts of substance.

For assay [4], the system named is E. coli K12. Kind of assay: Time kill kinetics. Type of assay: cell-based, Escherichia coli. How it is done:
Assessment of the bactericidal activity of peptides and comparator antibiotics was performed as previously described[39] using exponential-phase cultures of pathogens grown in MHB ([…]). Peptides were added at concentrations 3 times their MIC values. Experiments were performed in quadruplicates, and CFU/ml was calculated at different time points after over overnight incubation.

The test system of assay [5] is S. aureus MRSA ATCC 33591. Kind of assay: Neutropenic mouse MRSA thigh infection model. Type of assay: in vivo, Staphylococcus aureus. As to conditions: neutropenic male ICR mice; 10 mg/kg IV administered twice; significant (P < 0.001). Here is the method:
In the thigh infection model, using neutropenic mice,[25] groups of five male ICR mice weighing 22 ± 2 g were inoculated intramuscularly (IM) with S. aureus MRSA, ATCC 33591 (1.57 × 10^5 CFU/mouse (0.1 ml/thigh)) in the right thigh. Lynronne-1, Lynronne-2 and Lynronne-3 at 10 mg/kg were intravenously (IV) administered once 2 h post infection or twice 2 and 8 h post-infection. The reference substance, vancomycin, was also intravenously injected 2 and 8 h post-infection at 10 and 30 mg/kg. Test animals were sacrificed 26 h after inoculation and the infected thighs were excised and the bacterial burden (CFU/gram) was determined.

On to TTAPCKCWIGLRRCFK [P18], for which, in the assay with E. coli K12 [1], the “IC75 values indicating activity classes, E. coli” value is 0.36. The “IC75 values indicating activity classes, EMRSA-15” value in the assay on EMRSA-15 came to 3.77. Besides, in the assay with Sal. typhimurium, the “IC75 values indicating activity classes, Sal. typhimurium” value stood at 1.99. The “IC75 values indicating activity classes, P. aeruginosa H1001” value in the assay with P. aeruginosa H1001 amounted to 1.55.
Turning to `O=C(O)c1cn(C2CC2)c2cc(N3CCNCC3)c(F)cc2c1=O` [Cip, Ciprofloxacin, reference compound], the MIC with A. baumanii was determined as 0.25 µg/mL (≈ 0.754 µM); with C. jejuni (ATCC33292) it was 0.12 µg/mL (≈ 0.362 µM); against C. jejuni (NCTC11161), 0.5 µg/mL (≈ 1.51 µM); against Ent. faecalis JH2-2 it was 64 µg/mL (≈ 193 µM); against K. pneumoniae (ATCC700603, strain ATCC 700603, SHV-18) it was 0.25 µg/mL (≈ 0.754 µM); in the assay with K. pneumoniae (NCTC13442, strain NCTC 13442, OXA-48), 1 µg/mL (≈ 3.02 µM). Further, the MIC against K. pneumoniae (strain ID not given, Sensitive) came to 0.03 µg/mL (≈ 0.0905 µM); against K. pneumoniae (strain Q14-0285, VIM) it was 32 µg/mL (≈ 96.6 µM); in assay [2], 64 µg/mL (≈ 193 µM); with P. aeruginosa (CF) (ATCC27853, strain ATCC 27853, Sensitive) it was 0.25 µg/mL (≈ 0.754 µM); against P. aeruginosa (CF) (strain PA01), 0.5 µg/mL (≈ 1.51 µM); against P. aeruginosa (CF) (strain Q12-0535, Sensitive), 0.06 µg/mL (≈ 0.181 µM). Besides, the MIC against P. aeruginosa (CF) (strain Q12-0581, IMI, MER) was 2 µg/mL (≈ 6.04 µM); against P. aeruginosa (CF) (strain Q12-0758, CAZ, IMI, MER), 2 µg/mL (≈ 6.04 µM); against P. aeruginosa (CF) (strain Q14-0208, CAZ, IMI, MER), 4 µg/mL (≈ 12.1 µM); in the assay with P. aeruginosa (CF) (strain Q14-0890, CAZ, IMI, MER), 4 µg/mL (≈ 12.1 µM); against S. aureus, more than 256 µg/mL; against S. aureus (ATCC29213, strain ATCC 29213, Sensitive, cation adjusted MHB, 18–24 h), 0.25 µg/mL (≈ 0.754 µM). For the same compound, the MIC in the assay on S. aureus (MRSA, strain EMRSA-15, resistances MRSA, Cip, cation adjusted MHB, 5 × 10^5 CFU/ml, 18–24 h) was more than 256 µg/mL; with S. aureus (MRSA, strain Q14-0320, cation adjusted MHB, 18–24 h), 64 µg/mL (≈ 193 µM); with S. aureus (MRSA, strain Q14-0325, cation adjusted MHB, 18–24 h) it was 0.25 µg/mL (≈ 0.754 µM); against S. aureus (MRSA, strain Q14-0352, cation adjusted MHB, 18–24 h) it was 0.5 µg/mL (≈ 1.51 µM); against S. aureus (MRSA, strain Q14-0390, cation adjusted MHB, 18–24 h), 64 µg/mL (≈ 193 µM); against S. aureus (MRSA|NCTC12493, strain NCTC 12493, MRSA, cation adjusted MHB, 18–24 h), 0.25 µg/mL (≈ 0.754 µM). In addition, the figures for the MIC against Sal. typhimurium SL1344 and in the assay with E. coli K12 [3] were 0.12 µg/mL (≈ 0.362 µM) and 0.06 µg/mL (≈ 0.181 µM), respectively. Moreover, the “Bactericidal activity (reduction in viable count)” value in the assay on E. coli K12 [4] (at 3 h) is more than 4 log10 CFU/ml.
`CN[C@H](CC(C)C)C(=O)N[C@H]1C(=O)N[C@@H](CC(N)=O)C(=O)N[C@H]2C(=O)N[C@H]3C(=O)N[C@H](C(=O)N[C@H](C(=O)O)c4cc(O)cc(O)c4-c4cc3ccc4O)[C@H](O)c3ccc(c(Cl)c3)Oc3cc2cc(c3O[C@@H]2O[C@H](CO)[C@@H](O)[C@H](O)[C@H]2O[C@H]2C[C@](C)(N)[C@H](O)[C@H](C)O2)Oc2ccc(cc2Cl)[C@H]1O` [Van, Vancomycin, reference compound]: the MIC is 64 µg/mL (≈ 44.2 µM) with Ent. faecalis JH2-2; 64 µg/mL (≈ 44.2 µM) in assay [2]; 1 µg/mL (≈ 0.69 µM) against S. aureus; 2 µg/mL (≈ 1.38 µM) with S. aureus (ATCC33591 / MRSA); 2 µg/mL (≈ 1.38 µM) in the assay with S. aureus (BAA1717 / MRSA / USA300); 2 µg/mL (≈ 1.38 µM) against S. aureus (MRSA). The MIC was 256 µg/mL (≈ 177 µM) with Sal. typhimurium SL1344 and 128 µg/mL (≈ 88.3 µM) in the assay with E. coli K12 [3]. The “Reduction in colony counts” value in [5] is less than 2 log.
For the compound Polymyxin B, the “Bactericidal activity (reduction in viable count)” value in the assay on E. coli K12 [4] (at 10 min) is listed as more than 4 log10 CFU/ml.
